Experimental data as given in patent publication US12024503B2, “Benzethers and anilines of pyrazolyl-amino-pyrimidinyl derivatives, and compositions and methods thereof” (LYNK PHARMACEUTICALS CO. LTD., priority 2019, dated 2024).

How the values were obtained:
Assay type in all cases: biochemical
[1] = biological target: T1, TYK2 (Homo sapiens, UniProt P29597); experiment: TYK2 microfluidic kinase assay (Caliper EZ Reader II, FAM labeled peptide substrate); conditions: (2.5 nM), 1 mM ATP; Table 3B, literature compounds; read-out: TYK2 (2.5 nM) (1 mM ATP)
T1 construct: purchased Carna Biosciences
T1 sequence (P29597 whole entry): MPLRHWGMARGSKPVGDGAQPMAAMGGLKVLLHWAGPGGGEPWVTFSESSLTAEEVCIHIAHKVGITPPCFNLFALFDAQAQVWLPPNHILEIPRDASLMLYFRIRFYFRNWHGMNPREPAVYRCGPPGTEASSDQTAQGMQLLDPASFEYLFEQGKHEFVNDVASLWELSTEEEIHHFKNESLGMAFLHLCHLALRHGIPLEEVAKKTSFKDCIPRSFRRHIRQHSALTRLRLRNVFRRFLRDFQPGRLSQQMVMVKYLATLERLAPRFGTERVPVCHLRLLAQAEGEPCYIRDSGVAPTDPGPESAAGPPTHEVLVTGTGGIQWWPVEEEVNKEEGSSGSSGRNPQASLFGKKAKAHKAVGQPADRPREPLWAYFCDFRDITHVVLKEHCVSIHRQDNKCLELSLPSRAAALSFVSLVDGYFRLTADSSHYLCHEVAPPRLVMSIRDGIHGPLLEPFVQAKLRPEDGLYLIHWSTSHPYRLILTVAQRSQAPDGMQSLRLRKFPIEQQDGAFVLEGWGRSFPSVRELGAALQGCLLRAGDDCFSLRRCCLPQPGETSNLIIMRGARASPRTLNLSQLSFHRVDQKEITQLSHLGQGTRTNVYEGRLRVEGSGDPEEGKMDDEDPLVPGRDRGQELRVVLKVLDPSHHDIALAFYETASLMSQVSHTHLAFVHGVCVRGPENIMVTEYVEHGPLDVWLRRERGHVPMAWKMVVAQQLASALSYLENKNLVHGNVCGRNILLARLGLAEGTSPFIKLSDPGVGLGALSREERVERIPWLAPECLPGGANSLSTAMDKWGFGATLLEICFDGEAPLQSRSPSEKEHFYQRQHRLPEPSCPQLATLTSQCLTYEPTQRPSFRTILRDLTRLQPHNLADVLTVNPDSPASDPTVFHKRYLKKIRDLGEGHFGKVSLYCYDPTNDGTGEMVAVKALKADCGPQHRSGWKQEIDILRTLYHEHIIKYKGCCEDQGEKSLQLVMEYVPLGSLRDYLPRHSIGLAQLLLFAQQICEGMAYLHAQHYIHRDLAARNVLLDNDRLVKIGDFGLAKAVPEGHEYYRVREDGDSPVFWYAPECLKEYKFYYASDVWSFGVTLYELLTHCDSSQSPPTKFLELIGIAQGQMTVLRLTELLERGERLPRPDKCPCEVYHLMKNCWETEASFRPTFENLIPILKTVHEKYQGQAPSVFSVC
Method: (§1) Compounds were tested against JAK1, JAK2, JAK2V617F and TYK2.
(§2) Assay Formats: JAK activity was determined in the reaction buffer 50 mM HEPES, 0.01% Brij35, 10 mMMgCl2, 2 mMDTT by a microfluidic assay. The phosphorylation of a FAM labeled peptide substrate was monitored in the Caliper EZ Reader II (Perkin Elmer). The assay condition for each batch of enzyme (Carna Biosciences) was optimized to obtain 10% conversion rate of peptide substrate.
(§3) The test compounds were dissolved in DMSO to a stock concentration of 10 mM. 3-fold serially diluted compounds with top concentration of 5 μM were pre-incubated with JAK1, JAK2, JAK2V617F or TYK2 for 10 min at ambient temperature. The final DMSO concentration of assay mixture was 1%. FAM labeled peptide substrate (final concentration […]) and ATP (1 mM concentration) were sequentially added to initiate the kinase reaction at 28° C. The reaction was stopped by adding 50 mMEDTA. The reaction time for JAK1, JAK2, JAK2V617F and TYK2 was 120 min, 20 min, 30 min and 10 min, respectively.
(§4) The well in the test plate without enzyme was defined as 100% inhibition. And the well without compound but with equivalent DMSO was defined as no inhibition. The percent inhibition was calculated by the following formula. % Inhibition=(Conversionmax−Conversionsample)/(Conversionmax−Conversionmin)*100Conversionmax means the conversion rate in the positive well without addition of compound Conversionmin means the conversion rate in the well without addition of enzyme Conversionsample means the conversion rate of test compounds
(§5) The dose-response (percent inhibition) curve was plotted and IC50 values were determined by GraphPad software.

[2] = biological target: T2, JAK1 (Homo sapiens, UniProt P23458); experiment: JAK1 microfluidic kinase assay (Caliper EZ Reader II, FAM labeled peptide substrate); conditions: (5 nM), 1 mM ATP; Table 3B, literature compounds; read-out: JAK1 (5 nM) (1 mM ATP)
T2 construct: purchased Carna Biosciences
T2 sequence (P23458 whole entry): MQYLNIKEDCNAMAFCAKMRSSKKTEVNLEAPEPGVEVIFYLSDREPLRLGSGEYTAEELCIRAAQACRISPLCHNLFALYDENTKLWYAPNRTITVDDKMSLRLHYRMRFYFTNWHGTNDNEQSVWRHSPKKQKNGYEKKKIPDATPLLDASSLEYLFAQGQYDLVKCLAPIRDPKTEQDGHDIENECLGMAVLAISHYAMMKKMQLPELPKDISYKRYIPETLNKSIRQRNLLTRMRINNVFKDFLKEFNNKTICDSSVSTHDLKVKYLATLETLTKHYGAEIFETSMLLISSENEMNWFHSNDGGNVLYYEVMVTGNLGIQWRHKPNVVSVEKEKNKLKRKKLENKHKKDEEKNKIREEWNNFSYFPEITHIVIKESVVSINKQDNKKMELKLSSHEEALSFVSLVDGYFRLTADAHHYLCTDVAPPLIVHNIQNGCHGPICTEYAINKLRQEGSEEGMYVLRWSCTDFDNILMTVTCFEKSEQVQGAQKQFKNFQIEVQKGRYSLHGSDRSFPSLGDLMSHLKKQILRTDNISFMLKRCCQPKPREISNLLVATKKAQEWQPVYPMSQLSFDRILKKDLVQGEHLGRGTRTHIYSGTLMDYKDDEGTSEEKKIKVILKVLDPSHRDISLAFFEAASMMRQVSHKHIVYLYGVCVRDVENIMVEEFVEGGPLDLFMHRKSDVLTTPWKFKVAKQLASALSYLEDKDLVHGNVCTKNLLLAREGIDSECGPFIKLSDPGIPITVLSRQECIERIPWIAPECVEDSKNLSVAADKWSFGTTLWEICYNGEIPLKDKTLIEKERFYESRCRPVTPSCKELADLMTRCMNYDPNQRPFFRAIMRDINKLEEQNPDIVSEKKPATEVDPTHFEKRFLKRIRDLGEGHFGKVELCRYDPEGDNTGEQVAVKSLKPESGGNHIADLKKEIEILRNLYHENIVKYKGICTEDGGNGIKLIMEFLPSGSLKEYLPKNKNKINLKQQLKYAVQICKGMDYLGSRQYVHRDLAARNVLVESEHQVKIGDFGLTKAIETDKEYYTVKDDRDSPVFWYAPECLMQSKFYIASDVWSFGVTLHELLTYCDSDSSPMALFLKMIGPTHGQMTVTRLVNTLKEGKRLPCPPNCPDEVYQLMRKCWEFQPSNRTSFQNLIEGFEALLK
Method: as §1, §2, §3, §4, §5

[3] = biological target: T3, JAK2 (Homo sapiens, UniProt O60674); experiment: JAK2 microfluidic kinase assay (Caliper EZ Reader II, FAM labeled peptide substrate); conditions: (0.25 nM), 1 mM ATP; Table 3B, literature compounds; read-out: JAK2 (0.25 nM) (1 mM ATP)
T3 construct: purchased Carna Biosciences
T3 sequence (O60674 whole entry): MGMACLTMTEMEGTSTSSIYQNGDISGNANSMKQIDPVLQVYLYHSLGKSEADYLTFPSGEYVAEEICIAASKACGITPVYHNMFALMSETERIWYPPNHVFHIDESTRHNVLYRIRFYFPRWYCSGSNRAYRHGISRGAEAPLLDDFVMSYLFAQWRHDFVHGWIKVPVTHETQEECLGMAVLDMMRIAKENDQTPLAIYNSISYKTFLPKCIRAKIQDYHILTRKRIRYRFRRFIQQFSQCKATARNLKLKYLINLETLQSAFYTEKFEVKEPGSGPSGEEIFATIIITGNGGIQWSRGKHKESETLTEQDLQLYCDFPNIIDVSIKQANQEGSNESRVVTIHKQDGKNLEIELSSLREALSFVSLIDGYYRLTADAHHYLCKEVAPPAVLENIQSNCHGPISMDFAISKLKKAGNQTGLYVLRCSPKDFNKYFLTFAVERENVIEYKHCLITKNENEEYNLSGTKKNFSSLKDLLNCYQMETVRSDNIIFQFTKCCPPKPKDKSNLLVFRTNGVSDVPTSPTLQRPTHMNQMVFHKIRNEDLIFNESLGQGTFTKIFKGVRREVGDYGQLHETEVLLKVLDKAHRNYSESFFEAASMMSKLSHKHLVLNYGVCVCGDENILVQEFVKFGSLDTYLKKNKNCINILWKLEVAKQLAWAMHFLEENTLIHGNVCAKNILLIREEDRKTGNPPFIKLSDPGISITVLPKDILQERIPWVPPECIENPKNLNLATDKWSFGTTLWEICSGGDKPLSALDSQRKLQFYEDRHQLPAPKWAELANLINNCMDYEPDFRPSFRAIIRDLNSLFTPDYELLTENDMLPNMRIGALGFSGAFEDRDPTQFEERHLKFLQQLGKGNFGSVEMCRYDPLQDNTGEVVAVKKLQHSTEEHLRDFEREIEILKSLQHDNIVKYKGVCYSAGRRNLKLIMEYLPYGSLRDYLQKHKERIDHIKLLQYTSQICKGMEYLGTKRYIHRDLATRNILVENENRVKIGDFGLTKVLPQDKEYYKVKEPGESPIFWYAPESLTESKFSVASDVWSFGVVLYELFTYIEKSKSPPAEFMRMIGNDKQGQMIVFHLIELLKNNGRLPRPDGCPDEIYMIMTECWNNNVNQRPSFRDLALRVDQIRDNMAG
Method: as §1, §2, §3, §4, §5

[4] = biological target: T4, JAK2V617F (Homo sapiens, UniProt O60674, V617F); experiment: JAK2V617F microfluidic kinase assay (Caliper EZ Reader II, FAM labeled peptide substrate); conditions: (2.5 nM), 1 mM ATP; Table 3B, literature compounds; read-out: J2V617F (2.5 nM) (1 mM ATP)
T4 construct: purchased Carna Biosciences
T4 sequence (O60674 whole entry V617F): as the sequence (O60674 whole entry) above, with V617F counted along it
Method: as §1, §2, §3, §4, §5

Row | IC50 [1] [µM] | IC50 [2] [µM] | IC50 [3] [µM] | IC50 [4] [µM] | Compound
1 | 0.0749 | 0.0406 | 0.0606 | 0.0863 | CCOc1ccc(-c2nc(Nc3cnn(C)c3)ncc2C)cc1F [Example 46, 4-(4-ethoxy-3-fluorophenyl)-5-methyl-N-(1-methyl-1H-pyrazol-4-yl)pyrimidin-2-amine, reference compound]
2 | 0.0413 | 0.0526 | 0.0807 | 0.103 | CCOc1ccc(-c2nc(Nc3cnn(C(C)C)c3)ncc2C)cc1F [Example 49, 4-(4-ethoxy-3-fluorophenyl)-N-(1-isopropyl-1H-pyrazol-4-yl)-5-methylpyrimidin-2-amine, reference compound]
3 | 0.157 | 0.151 | 0.201 | 0.343 | CCOc1ccc(-c2nc(Nc3cnn(C)c3)ncc2C)cc1 [Example 50, 4-(4-ethoxyphenyl)-5-methyl-N-(1-methyl-1H-pyrazol-4-yl)pyrimidin-2-amine, reference compound]
